Test results published in PMC5218480 (PLoS ONE, 2017).

System: MV-4-11 cells
Experiment: Gene expression microarray analysis (Affymetrix PrimeView) and GSEA
Format: cell-based, human
Set-up: RFU PODN (11730768_x_at) / Fold change /veh PODN (11730768_x_at) / RFU LINC00158 (11744669_a_at) / Fold change /veh LINC00158 (11744669_a_at) / RFU DUSP10 (11751237_a_at) / Fold change /veh DUSP10 (11751237_a_at) / RFU ID3 (11757404_x_at) / Fold change /veh ID3 (11757404_x_at) / RFU PLEKHG5 (11737974_s_at) / Fold change /veh PLEKHG5 (11737974_s_at) / RFU LRRC4B (11730491_at) / Fold change /veh LRRC4B (11730491_at) / RFU GIMAP4 (11747438_a_at) / Fold change /veh GIMAP4 (11747438_a_at) / RFU KRT8 (11758183_x_at) / Fold change /veh KRT8 (11758183_x_at) / RFU CNN1 (11734310_a_at) / Fold change /veh CNN1 (11734310_a_at) / RFU VPS37D (11726825_at) / Fold change /veh VPS37D (11726825_at) / RFU C10orf10 (11716522_x_at) / Fold change /veh C10orf10 (11716522_x_at) / RFU KIR2DL2 /// KIR2DL4 /// KIR2DL5A /// KIR2DL5B /// KIR2DS1 /// KIR2DS2 /// KIR2DS3 /// KIR2DS4 /// KIR3DL3 /// KIR3DL3 /// KIR3DS1 (11738374_at) / Fold change /veh KIR2DL2 /// KIR2DL4 /// KIR2DL5A /// KIR2DL5B /// KIR2DS1 /// KIR2DS2 /// KIR2DS3 /// KIR2DS4 /// KIR3DL3 /// KIR3DL3 /// KIR3DS1 (11738374_at) / RFU C1QL1 (11718748_at) / Fold change /veh C1QL1 (11718748_at) / RFU TMPRSS4 (11747572_a_at) / Fold change /veh TMPRSS4 (11747572_a_at) / RFU HAMP (11756126_x_at) / Fold change /veh HAMP (11756126_x_at) / RFU RNFT2 (11725882_a_at) / Fold change /veh RNFT2 (11725882_a_at) / RFU NR4A2 (11747474_a_at) / Fold change /veh NR4A2 (11747474_a_at) / RFU ABCC12 (11746883_a_at) / Fold change /veh ABCC12 (11746883_a_at) / RFU TMEM136 (11760407_x_at) / Fold change /veh TMEM136 (11760407_x_at) / RFU CLDN22 /// WWC2 (11732394_at) / Fold change /veh CLDN22 /// WWC2 (11732394_at) / RFU HLA-DPB1 (11760878_x_at) / Fold change /veh HLA-DPB1 (11760878_x_at) / RFU SPINT1 (11716480_a_at) / Fold change /veh SPINT1 (11716480_a_at) / RFU GAP43 (11754022_s_at) / Fold change /veh GAP43 (11754022_s_at) / RFU A4GNT (11735810_at) / Fold change /veh A4GNT (11735810_at) / RFU PRB3 (11715151_x_at) / Fold change /veh PRB3 (11715151_x_at) / RFU TUBB4B (11761932_at) / Fold change /veh TUBB4B (11761932_at) / RFU CAPN14 (11732068_a_at) / Fold change /veh CAPN14 (11732068_a_at) / RFU TMCC2 (11721928_a_at) / Fold change /veh TMCC2 (11721928_a_at) / RFU IRGQ (11745062_a_at) / Fold change /veh IRGQ (11745062_a_at) / RFU FAM174B (11720279_a_at) / Fold change /veh FAM174B (11720279_a_at) / RFU TMPRSS4 (11748680_a_at) / Fold change /veh TMPRSS4 (11748680_a_at) / RFU FAM212B (11763350_a_at) / Fold change /veh FAM212B (11763350_a_at) / RFU PLEKHG5 (11743358_a_at) / Fold change /veh PLEKHG5 (11743358_a_at) / RFU ZSCAN30 (11745921_a_at) / Fold change /veh ZSCAN30 (11745921_a_at) / RFU CMKLR1 (11741424_a_at) / Fold change /veh CMKLR1 (11741424_a_at) / RFU LOC101060620 /// MAPK8IP1 (11723275_at) / Fold change /veh LOC101060620 /// MAPK8IP1 (11723275_at) / RFU SPTSSB (11747773_x_at) / Fold change /veh SPTSSB (11747773_x_at) / RFU PRSS12 (11739890_at) / Fold change /veh PRSS12 (11739890_at) / RFU BIN1 (11741810_x_at) / Fold change /veh BIN1 (11741810_x_at) / RFU WNT11 (11732464_a_at) / Fold change /veh WNT11 (11732464_a_at) / RFU C10orf10 (11716521_a_at) / Fold change /veh C10orf10 (11716521_a_at) / RFU C5orf56 (11738089_at) / Fold change /veh C5orf56 (11738089_at) / RFU CYB561 (11721691_x_at) / Fold change /veh CYB561 (11721691_x_at) / RFU ANKRD19P (11752326_a_at) / Fold change /veh ANKRD19P (11752326_a_at) / RFU OR2T12 /// OR2T33 /// OR2T8 (11738714_s_at) / Fold change /veh OR2T12 /// OR2T33 /// OR2T8 (11738714_s_at) / RFU VCAN (11748164_a_at) / Fold change /veh VCAN (11748164_a_at) / RFU JSRP1 (11732532_at) / Fold change /veh JSRP1 (11732532_at) / RFU KRTAP10-11 (11738290_x_at) / Fold change /veh KRTAP10-11 (11738290_x_at) / RFU MYO3A (11730013_a_at) / Fold change /veh MYO3A (11730013_a_at) / RFU EBF3 (11725865_a_at) / Fold change /veh EBF3 (11725865_a_at) / RFU CAMK2N1 (11719241_x_at) / Fold change /veh CAMK2N1 (11719241_x_at) / RFU C5orf56 (11738088_a_at) / Fold change /veh C5orf56 (11738088_a_at) / RFU OLFML3 (11715873_a_at) / Fold change /veh OLFML3 (11715873_a_at) / RFU LOC100653217 /// NTM (11731650_a_at) / Fold change /veh LOC100653217 /// NTM (11731650_a_at) / RFU MAPK11 (11762145_a_at) / Fold change /veh MAPK11 (11762145_a_at) / RFU FIZ1 (11724087_x_at) / Fold change /veh FIZ1 (11724087_x_at) / RFU OASL (11726364_x_at) / Fold change /veh OASL (11726364_x_at) / RFU SOX15 (11748057_x_at) / Fold change /veh SOX15 (11748057_x_at) / RFU CD79A (11719716_a_at) / Fold change /veh CD79A (11719716_a_at) / RFU HIST1H1D (11736915_at) / Fold change /veh HIST1H1D (11736915_at) / RFU CASKIN2 (11723855_a_at) / Fold change /veh CASKIN2 (11723855_a_at) / RFU LOC730098 (11760151_x_at) / Fold change /veh LOC730098 (11760151_x_at) / RFU OR4N2 (11742367_at) / Fold change /veh OR4N2 (11742367_at) / RFU PRRT2 (11749266_a_at) / Fold change /veh PRRT2 (11749266_a_at) / RFU SNX32 (11753110_a_at) / Fold change /veh SNX32 (11753110_a_at) / RFU CDHR5 (11726645_a_at) / Fold change /veh CDHR5 (11726645_a_at) / RFU RCAN1 (11760418_a_at) / Fold change /veh RCAN1 (11760418_a_at) / RFU FAM167A (11723789_a_at) / Fold change /veh FAM167A (11723789_a_at) / RFU FAM26E (11764081_at) / Fold change /veh FAM26E (11764081_at) / RFU ISYNA1 (11749810_s_at) / Fold change /veh ISYNA1 (11749810_s_at) / RFU ACY1 (11761880_at) / Fold change /veh ACY1 (11761880_at) / RFU 11764098_at / Fold change /veh 11764098_at / RFU SAMD14 (11745864_x_at) / Fold change /veh SAMD14 (11745864_x_at) / RFU NPB (11741838_a_at) / Fold change /veh NPB (11741838_a_at) / RFU TMPRSS6 (11731388_a_at) / Fold change /veh TMPRSS6 (11731388_a_at) / RFU KRTAP10-2 (11738614_at) / Fold change /veh KRTAP10-2 (11738614_at) / RFU ARHGAP8 /// PRR5-ARHGAP8 (11727945_x_at) / Fold change /veh ARHGAP8 /// PRR5-ARHGAP8 (11727945_x_at) / RFU KRTAP5-7 /// NADSYN1 (11734609_at) / Fold change /veh KRTAP5-7 /// NADSYN1 (11734609_at) / RFU RASL12 (11751679_a_at) / Fold change /veh RASL12 (11751679_a_at) / RFU CDKN2B (11736163_a_at) / Fold change /veh CDKN2B (11736163_a_at) / RFU PRF1 (11729649_at) / Fold change /veh PRF1 (11729649_at) / RFU, ZNF638 /// ZNF638-IT1 / Fold change vs veh, ZNF638 /// ZNF638-IT1 / RFU, PANK3 / Fold change vs veh, PANK3 / RFU, SH3YL1 / Fold change vs veh, SH3YL1 / RFU, ZEB2 / Fold change vs veh, ZEB2 / RFU, NRIP1 / Fold change vs veh, NRIP1 / RFU, PTTG1IP / Fold change vs veh, PTTG1IP / RFU, CAPN2 / Fold change vs veh, CAPN2 / RFU, MED14 / Fold change vs veh, MED14 / RFU, SNORA58 / Fold change vs veh, SNORA58 / RFU, C1orf63 / Fold change vs veh, C1orf63 / RFU, LRRFIP1 / Fold change vs veh, LRRFIP1 / RFU, NDUFAF7 / Fold change vs veh, NDUFAF7 / RFU, SLC12A2 / Fold change vs veh, SLC12A2 / RFU, IBTK / Fold change vs veh, IBTK / RFU, ESF1 / Fold change vs veh, ESF1 / Fold change vs veh, TMEM50B / RFU, TAOK1 / Fold change vs veh, TAOK1 / RFU, ACBD3 / Fold change vs veh, ACBD3 / RFU, TMA16 / Fold change vs veh, TMA16 / RFU, RWDD3 / Fold change vs veh, RWDD3 / RFU, BCAT1 / Fold change vs veh, BCAT1 / RFU, EDEM3 / Fold change vs veh, EDEM3 / RFU, TMEM33 / Fold change vs veh, TMEM33 / RFU, WDR75 / Fold change vs veh, WDR75 / RFU, AHCTF1 / Fold change vs veh, AHCTF1 / RFU, TFRC / Fold change vs veh, TFRC / RFU, ZDHHC17 / Fold change vs veh, ZDHHC17 / RFU, NOM1 / Fold change vs veh, NOM1 / RFU, ARL8B / Fold change vs veh, ARL8B / RFU, ZBTB11 / Fold change vs veh, ZBTB11 / RFU, TAMM41 / Fold change vs veh, TAMM41 / RFU, KIAA1704 /// LOC100996395 / Fold change vs veh, KIAA1704 /// LOC100996395 / RFU, ING1 / Fold change vs veh, ING1 / RFU, TRMT61B / Fold change vs veh, TRMT61B / RFU, FUBP3 / Fold change vs veh, FUBP3 / RFU, TP53 / Fold change vs veh, TP53 / RFU, TNKS2 / Fold change vs veh, TNKS2 / RFU, ZFP14 / Fold change vs veh, ZFP14 / RFU, ACTR2 / Fold change vs veh, ACTR2 / RFU, PPP3R1 / Fold change vs veh, PPP3R1 / RFU, PIK3R1 / Fold change vs veh, PIK3R1 / RFU, HNRNPA1 / Fold change vs veh, HNRNPA1 / RFU, RNF170 / Fold change vs veh, RNF170 / RFU, ZNF28 / Fold change vs veh, ZNF28 / RFU, RNGTT / Fold change vs veh, RNGTT / RFU, OGT / Fold change vs veh, OGT / RFU, BRD1 / Fold change vs veh, BRD1 / RFU, MARS / Fold change vs veh, MARS / RFU, ZNF655 / Fold change vs veh, ZNF655 / RFU, FAHD1 / Fold change vs veh, FAHD1 / RFU, BDP1 / Fold change vs veh, BDP1 / RFU, LRRCC1 / Fold change vs veh, LRRCC1 / RFU, ARID1A / Fold change vs veh, ARID1A / RFU, ZNF146 / Fold change vs veh, ZNF146 / RFU, ZNF330 / Fold change vs veh, ZNF330 / RFU, GPN3 / Fold change vs veh, GPN3 / RFU, C9orf123 / Fold change vs veh, C9orf123 / RFU, N4BP2L2 / Fold change vs veh, N4BP2L2 / RFU, ARFIP1 / Fold change vs veh, ARFIP1 / RFU, FAM179B / Fold change vs veh, FAM179B / RFU, BCL10 / Fold change vs veh, BCL10 / RFU, UHRF1BP1L / Fold change vs veh, UHRF1BP1L / RFU, BET1 / Fold change vs veh, BET1 / RFU, CNOT2 / Fold change vs veh, CNOT2 / RFU, ZNF268 / Fold change vs veh, ZNF268 / Fold change vs veh, ZNF507 / RFU, DGCR2 / Fold change vs veh, DGCR2 / RFU, WDSUB1 / Fold change vs veh, WDSUB1 / Fold change vs veh, HSP90B1 /// MIR3652 / RFU, ADSS / Fold change vs veh, ADSS / RFU, GK / Fold change vs veh, GK / RFU, ZNF148 / Fold change vs veh, ZNF148 / RFU, TAF9 / Fold change vs veh, TAF9 / RFU, SLC1A5 / Fold change vs veh, SLC1A5 / RFU, SLMO2 / Fold change vs veh, SLMO2 / RFU, ABCC4 / Fold change vs veh, ABCC4 / RFU, LOC101060439 /// RAP1B / Fold change vs veh, LOC101060439 /// RAP1B / RFU, RFX7 / Fold change vs veh, RFX7 / RFU, GTPBP10 / Fold change vs veh, GTPBP10 / RFU, CNEP1R1 / Fold change vs veh, CNEP1R1 / RFU, BIVM-ERCC5 /// ERCC5 / Fold change vs veh, BIVM-ERCC5 /// ERCC5 / RFU, ILF3 / Fold change vs veh, ILF3 / RFU 11762660_at / Fold change /veh 11762660_at / RFU VCAN (11757783_s_at) / Fold change /veh VCAN (11757783_s_at) / RFU DDX43 (11728927_at) / Fold change /veh DDX43 (11728927_at) / RFU KRT8 (11758188_x_at) / Fold change /veh KRT8 (11758188_x_at) / RFU NKD1 (11759106_at) / Fold change /veh NKD1 (11759106_at) / RFU SRD5A1 (11742802_a_at) / Fold change /veh SRD5A1 (11742802_a_at) / RFU TPSAB1 /// TPSB2 (11721975_s_at) / Fold change /veh TPSAB1 /// TPSB2 (11721975_s_at) / RFU GSTM3 (11746129_a_at) / Fold change /veh GSTM3 (11746129_a_at) / RFU IL23R (11737362_x_at) / Fold change /veh IL23R (11737362_x_at) / RFU TMEM51 (11727254_a_at) / Fold change /veh TMEM51 (11727254_a_at) / RFU PIWIL2 (11732686_x_at) / Fold change /veh PIWIL2 (11732686_x_at) / RFU ORM1 (11744905_x_at) / Fold change /veh ORM1 (11744905_x_at) / RFU CCDC152 (11743942_at) / Fold change /veh CCDC152 (11743942_at) / RFU ECM1 (11717891_a_at) / Fold change /veh ECM1 (11717891_a_at) / RFU IL23R (11748794_a_at) / Fold change /veh IL23R (11748794_a_at) / RFU TNFAIP8L3 (11732012_x_at) / Fold change /veh TNFAIP8L3 (11732012_x_at) / RFU MBOAT4 (11741988_at) / Fold change /veh MBOAT4 (11741988_at) / RFU 11764193_at / Fold change /veh 11764193_at / RFU TMEM53 (11763286_at) / Fold change /veh TMEM53 (11763286_at) / RFU MAGEB2 (11727129_at) / Fold change /veh MAGEB2 (11727129_at) / RFU TMEM200A (11744735_a_at) / Fold change /veh TMEM200A (11744735_a_at) / RFU CCDC152 (11751479_a_at) / Fold change /veh CCDC152 (11751479_a_at) / RFU FAM211A (11726209_a_at) / Fold change /veh FAM211A (11726209_a_at) / RFU RGS16 (11746705_a_at) / Fold change /veh RGS16 (11746705_a_at) / RFU VCAN (11755009_s_at) / Fold change /veh VCAN (11755009_s_at) / RFU RHOB (11743442_s_at) / Fold change /veh RHOB (11743442_s_at) / RFU RGS16 (11720943_a_at) / Fold change /veh RGS16 (11720943_a_at) / RFU RGS16 (11720944_at) / Fold change /veh RGS16 (11720944_at) / RFU, VPS4B / Fold change vs veh, VPS4B / RFU, CREB1 / Fold change vs veh, CREB1 / RFU, DNAJC13 / Fold change vs veh, DNAJC13 / RFU, GNAQ / Fold change vs veh, GNAQ / RFU, CDK5R1 / Fold change vs veh, CDK5R1 / RFU, ZRANB3 / Fold change vs veh, ZRANB3 / RFU, CUL4A / Fold change vs veh, CUL4A / RFU, CCNY / Fold change vs veh, CCNY / RFU, UFL1 / Fold change vs veh, UFL1 / RFU, COG3 / Fold change vs veh, COG3 / RFU, DIAPH2 / Fold change vs veh, DIAPH2 / RFU, SKA2 / Fold change vs veh, SKA2 / RFU, AFF3 / Fold change vs veh, AFF3 / RFU, LMF1 / Fold change vs veh, LMF1 / RFU, IPO11 / Fold change vs veh, IPO11 / RFU, DFFB / Fold change vs veh, DFFB / RFU, FOXP1 / Fold change vs veh, FOXP1 / RFU, CARD8 / Fold change vs veh, CARD8 / RFU, STRN3 / Fold change vs veh, STRN3 / RFU, ADK / Fold change vs veh, ADK / RFU, RASSF2 / Fold change vs veh, RASSF2 / RFU, WIPF1 / Fold change vs veh, WIPF1 / RFU, LARP1B / Fold change vs veh, LARP1B / RFU, RASA1 / Fold change vs veh, RASA1 / RFU, RB1 / Fold change vs veh, RB1 / RFU, PPFIA1 / Fold change vs veh, PPFIA1 / RFU, MAT2A / Fold change vs veh, MAT2A / RFU, CCT5 / Fold change vs veh, CCT5 / RFU, WDR92 / Fold change vs veh, WDR92 / RFU, CUX1 / Fold change vs veh, CUX1 / RFU, TTC7A / Fold change vs veh, TTC7A / RFU, TMEM135 / Fold change vs veh, TMEM135 / RFU, DEPTOR / Fold change vs veh, DEPTOR / RFU, CPM / Fold change vs veh, CPM / RFU, DNAJB6 / Fold change vs veh, DNAJB6 / RFU, CACNA2D3 / Fold change vs veh, CACNA2D3 / RFU, DTX4 / Fold change vs veh, DTX4 / RFU, TFCP2 / Fold change vs veh, TFCP2 / RFU, GMCL1 /// GMCL1P1 / Fold change vs veh, GMCL1 /// GMCL1P1 / RFU, AEBP2 / Fold change vs veh, AEBP2 / RFU, SNHG1 /// SNORD22 /// SNORD25 /// SNORD26 /// SNORD27 /// SNORD28 /// SNORD29 /// SNORD31 / Fold change vs veh, SNHG1 /// SNORD22 /// SNORD25 /// SNORD26 /// SNORD27 /// SNORD28 /// SNORD29 /// SNORD31 / Fold change (Aza/veh), C12orf56 (ProbeSet 11735607_a_at) / Fold change (ACY-1035/veh), C12orf56 (ProbeSet 11735607_a_at) / Fold change (Aza/veh), FGFR1OP (ProbeSet 11751329_s_at) / Fold change (ACY-1035/veh), FGFR1OP (ProbeSet 11751329_s_at) / Fold change (Aza/veh), VPS36 (ProbeSet 11739960_a_at) / Fold change (ACY-1035/veh), VPS36 (ProbeSet 11739960_a_at) / RFU SYPL1 (11715823_x_at) / Fold change /veh SYPL1 (11715823_x_at) / RFU IGFBP7 (11715501_s_at) / Fold change /veh IGFBP7 (11715501_s_at) / RFU REEP3 (11722064_at) / Fold change /veh REEP3 (11722064_at) / RFU IGLL1 (11728026_x_at) / Fold change /veh IGLL1 (11728026_x_at): dose or concentration left out as unconfirmed
Settings: MV-4-11 cells, 48 hours

SMILES: Nc1ncn([C@@H]2O[C@H](CO)[C@@H](O)[C@H]2O)c(=O)n1 [azacitidine]
- Fold change /veh PODN (11730768_x_at): 1.12
